BindingDB's records for doi:10.1021/acsmedchemlett.3c00104 (Novartis Institutes for Biomedical Research, 2023)

What follows are molecules tested against T1, DDB1- and CUL4-associated factor 1 (Homo sapiens, UniProt Q9Y4B6) (assay: Binding affinity to Avi-tagged DCAF1 (1073 to 1399 residues) (unknown origin) expressed in baculovirus infected in Sf9 insect cells by SPR analysis).
T1 sequence (Q9Y4B6 whole entry, the tested form may be a part): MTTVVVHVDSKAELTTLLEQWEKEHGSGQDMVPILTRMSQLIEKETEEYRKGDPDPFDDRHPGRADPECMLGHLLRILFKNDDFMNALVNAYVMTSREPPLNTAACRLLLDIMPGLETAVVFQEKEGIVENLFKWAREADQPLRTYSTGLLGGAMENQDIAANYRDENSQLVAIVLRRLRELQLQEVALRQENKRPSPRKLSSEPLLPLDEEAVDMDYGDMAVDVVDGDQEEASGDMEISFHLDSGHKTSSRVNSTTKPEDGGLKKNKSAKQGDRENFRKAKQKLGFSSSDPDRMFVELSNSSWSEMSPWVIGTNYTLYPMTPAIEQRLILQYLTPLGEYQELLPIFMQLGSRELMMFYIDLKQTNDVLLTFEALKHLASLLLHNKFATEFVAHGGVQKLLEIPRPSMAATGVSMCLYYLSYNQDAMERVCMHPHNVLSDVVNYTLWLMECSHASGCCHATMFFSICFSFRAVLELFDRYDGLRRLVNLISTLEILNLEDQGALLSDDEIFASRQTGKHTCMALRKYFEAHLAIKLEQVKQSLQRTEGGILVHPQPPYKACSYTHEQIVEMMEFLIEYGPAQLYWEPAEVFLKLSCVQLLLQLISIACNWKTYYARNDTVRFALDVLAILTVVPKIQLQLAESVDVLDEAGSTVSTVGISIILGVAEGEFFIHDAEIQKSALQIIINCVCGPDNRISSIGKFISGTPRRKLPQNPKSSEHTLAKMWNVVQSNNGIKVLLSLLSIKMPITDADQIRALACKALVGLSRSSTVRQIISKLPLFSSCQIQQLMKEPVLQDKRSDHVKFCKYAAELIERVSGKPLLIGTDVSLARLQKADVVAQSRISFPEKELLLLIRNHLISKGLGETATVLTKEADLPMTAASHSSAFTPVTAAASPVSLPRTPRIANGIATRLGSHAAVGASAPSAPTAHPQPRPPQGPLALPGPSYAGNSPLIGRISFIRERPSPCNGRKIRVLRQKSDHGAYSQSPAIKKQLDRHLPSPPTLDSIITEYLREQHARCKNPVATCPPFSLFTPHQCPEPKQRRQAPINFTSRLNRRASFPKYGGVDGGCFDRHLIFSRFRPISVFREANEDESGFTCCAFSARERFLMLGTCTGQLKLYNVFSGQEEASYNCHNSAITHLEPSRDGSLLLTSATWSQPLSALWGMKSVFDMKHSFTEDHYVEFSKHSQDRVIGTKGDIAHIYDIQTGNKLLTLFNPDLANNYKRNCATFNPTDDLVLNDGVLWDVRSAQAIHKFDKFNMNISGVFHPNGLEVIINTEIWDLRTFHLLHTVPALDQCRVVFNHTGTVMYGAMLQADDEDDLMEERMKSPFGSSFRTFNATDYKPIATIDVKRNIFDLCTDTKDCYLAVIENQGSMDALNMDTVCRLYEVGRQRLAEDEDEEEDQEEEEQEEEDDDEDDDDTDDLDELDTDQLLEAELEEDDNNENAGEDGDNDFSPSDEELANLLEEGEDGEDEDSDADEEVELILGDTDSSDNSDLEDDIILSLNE

Kd [µM]	SMILES
41	Clc1ccc(C2(C3=Cc4ccccc4C4=NCCN34)CC2)cc1
> 50	COc1ccc(C2(C3=Cc4ccccc4C4=NCCN34)CC2)cc1
26.7	COc1ccc(C2(c3nc(NCCN)c4ccccc4n3)CC2)cc1
11.4	COc1ccc(C2(C3=Cc4cc(N5CCN(C)CC5)ccc4C4=NCCN34)CC2)cc1

Further lines, the molecule ahead of its results:

SMILES	Kd [µM]
COc1ccc(C2(c3nc(NCCN)c4ccc(N5CCN(C(C)=O)CC5)cc4n3)CC2)cc1	1.5
CC(=O)N1CCN(c2ccc3c(NCCN)nc(C4(c5ccc(Cl)cc5)CCCC4)nc3c2)CC1	0.047
CN1CCN(c2ccc3c(NCCN)nc(C4(c5ccc(Cl)cc5)CCCCC4)nc3c2)CC1	0.083
COc1ccc(C2(c3nc(NCCN)c4ccc(N5CCN(C)CC5)cc4n3)CC2)cc1	5.6
NC1=NCC(c2cccc(Oc3ccc(Cl)cc3)c2)C1 (stereo not drawn)	> 100
CN1CCN(c2ccc3c(NCCN)nc(C4(c5ccc(Cl)cc5)CCCC4)nc3c2)CC1	0.098

What follows are molecules tested against T1, DDB1- and CUL4-associated factor 1 (assay: Binding affinity to Avi-tagged DCAF1 (1039 to 1401 residues) (unknown origin) expressed in baculovirus infected in Sf9 insect cells by NMR analysis).

Kd [µM]	SMILES
13	Clc1ccc(C2(C3=Cc4ccccc4C4=NCCN34)CC2)cc1
40	CC(C)(Cc1ccccc1)C1=Cc2ccccc2C2=NCCN12
> 500	NC1=NCC(c2cccc(Oc3ccc(Cl)cc3)c2)C1 (stereo not drawn)
